Test results as given in patent publication US12581252B2, “Substituted pyrrolo[3,4-b]pyridines as PI3K-α inhibitors” (Relay Therapeutics, Inc., priority 2020, dated 2026).

Target: H1047R PIK3CA enzyme (Homo sapiens, UniProt P42336, H1047R)
Assay: ADP-Glo Biochemical PIK3CA Kinase Assay

Sequence of H1047R PIK3CA enzyme (P42336 whole entry H1047R): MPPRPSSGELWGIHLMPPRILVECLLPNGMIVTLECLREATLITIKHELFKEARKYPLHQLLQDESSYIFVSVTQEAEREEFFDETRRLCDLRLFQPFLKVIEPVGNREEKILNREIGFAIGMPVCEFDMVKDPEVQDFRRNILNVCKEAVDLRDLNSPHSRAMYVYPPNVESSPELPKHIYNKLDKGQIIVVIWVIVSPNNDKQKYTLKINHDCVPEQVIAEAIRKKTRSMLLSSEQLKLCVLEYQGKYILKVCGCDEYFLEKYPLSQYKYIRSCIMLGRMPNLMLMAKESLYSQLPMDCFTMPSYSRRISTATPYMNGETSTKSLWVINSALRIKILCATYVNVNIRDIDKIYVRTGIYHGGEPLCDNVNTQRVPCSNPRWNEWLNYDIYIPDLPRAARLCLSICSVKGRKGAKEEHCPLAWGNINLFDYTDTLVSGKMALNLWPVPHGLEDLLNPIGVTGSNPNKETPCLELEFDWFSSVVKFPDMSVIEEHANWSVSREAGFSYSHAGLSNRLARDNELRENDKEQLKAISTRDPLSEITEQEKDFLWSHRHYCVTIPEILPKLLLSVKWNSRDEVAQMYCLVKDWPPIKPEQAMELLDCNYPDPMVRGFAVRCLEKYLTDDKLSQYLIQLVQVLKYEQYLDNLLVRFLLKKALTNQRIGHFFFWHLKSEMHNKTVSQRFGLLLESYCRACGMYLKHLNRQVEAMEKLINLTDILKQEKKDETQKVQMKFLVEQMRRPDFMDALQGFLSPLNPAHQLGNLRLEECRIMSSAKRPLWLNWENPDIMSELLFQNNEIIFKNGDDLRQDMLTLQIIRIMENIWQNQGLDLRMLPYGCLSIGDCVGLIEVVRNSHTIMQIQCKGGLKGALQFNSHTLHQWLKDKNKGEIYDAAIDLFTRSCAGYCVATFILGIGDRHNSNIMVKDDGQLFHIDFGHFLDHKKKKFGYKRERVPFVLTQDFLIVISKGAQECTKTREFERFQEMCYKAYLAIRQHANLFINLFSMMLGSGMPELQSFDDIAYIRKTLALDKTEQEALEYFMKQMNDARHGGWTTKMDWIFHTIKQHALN
Sequence of H1047R PIK3CA enzyme (P27986 whole entry partner): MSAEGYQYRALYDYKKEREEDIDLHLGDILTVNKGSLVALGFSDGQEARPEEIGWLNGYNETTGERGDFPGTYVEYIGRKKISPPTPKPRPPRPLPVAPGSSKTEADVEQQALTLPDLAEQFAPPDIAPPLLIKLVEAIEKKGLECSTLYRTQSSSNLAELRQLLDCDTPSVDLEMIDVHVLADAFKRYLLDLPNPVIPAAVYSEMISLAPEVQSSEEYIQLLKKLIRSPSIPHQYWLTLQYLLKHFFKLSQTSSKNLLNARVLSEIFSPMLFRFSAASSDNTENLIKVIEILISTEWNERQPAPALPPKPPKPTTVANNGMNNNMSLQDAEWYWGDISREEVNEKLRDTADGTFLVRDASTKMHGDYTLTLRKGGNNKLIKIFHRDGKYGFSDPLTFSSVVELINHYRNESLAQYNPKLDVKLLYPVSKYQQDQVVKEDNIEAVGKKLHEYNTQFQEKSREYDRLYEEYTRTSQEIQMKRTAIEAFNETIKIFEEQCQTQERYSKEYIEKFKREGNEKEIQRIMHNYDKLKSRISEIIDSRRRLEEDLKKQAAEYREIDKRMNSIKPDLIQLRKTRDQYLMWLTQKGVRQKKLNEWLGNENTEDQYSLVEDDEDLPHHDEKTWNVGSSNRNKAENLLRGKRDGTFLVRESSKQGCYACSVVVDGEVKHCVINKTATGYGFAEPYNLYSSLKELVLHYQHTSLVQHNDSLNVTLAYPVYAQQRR

IC50	SMILES
10000 to 100000 nM	O=C1NC(c2cc(F)ccc2Cl)c2c(NC(=O)N3CCc4ccncc43)cccc21 (stereo not drawn) [Compound I-2182]
≤ 100 nM	O=C(Nc1cc(CC2CCO2)cc2c1C(c1cc(F)ccc1Cl)NC2=O)c1cc(F)cc(C(F)(F)F)c1 (stereo not drawn) [Compound I-1302]
10000 to 100000 nM	CN1CCN(C(=O)Nc2cc(Br)cc3c2C(c2cc(F)ccc2Cl)NC3=O)CC1(C)C (racemic) [Compound I-685]
1000 to 10000 nM	O=C1N[C@@H](c2cc(F)ccc2Cl)c2c(NC(=O)N3C[C@@H](O)c4cc(F)ccc43)cc(-n3cccn3)cc21 (single isomer, unassigned) [Compound I-2366]
≤ 100 nM	O=C(Nc1cc(C2CS(=O)(=O)C2)cc2c1C(c1cc(F)ccc1Cl)NC2=O)c1cc(F)cc(C(F)(F)F)c1 (stereo not drawn) [Compound I-1196]
≤ 100 nM	Cc1ncc(-c2cc(NC(=O)c3cc(F)cc(C(F)(F)F)c3)c3c(c2)C(=O)NC3c2cc(F)ccc2Cl)cn1 (stereo not drawn) [Compound I-732]
10000 to 100000 nM	O=C(Nc1cccc2c1C(c1cccc3cn[nH]c13)NC2=O)c1cc(F)cc(C(F)(F)F)c1 (stereo not drawn) [Compound I-666]
10000 to 100000 nM	O=C(Nc1cccc2c1[C@@H](C1CCC[C@H](O)C1)NC2=O)c1cc(F)cc(C(F)(F)F)c1 (single isomer, unassigned) [Compound I-2225]
1000 to 10000 nM	O=C1NC(c2cc(F)ccc2Cl)c2c(NC(=O)C3CCCC(F)C3)cc(-c3ccc4ncnn4c3)cc21 (stereo not drawn) [Compound I-1957]
10000 to 100000 nM	O=C1NC(c2cc(F)ccc2Cl)c2c(NC(=O)C3CNCC(C(F)(F)F)C3)cc(-c3ccc4ncnn4c3)cc21 (mixture of isomers) [Compound I-2051]
10000 to 100000 nM	O=C1NCc2c(NC(=O)N3CCCC[C@H]3Cc3ccccc3)cccc21 (stereo in doubt) [Compound I-988]
10000 to 100000 nM	O=C(Nc1cc(OC[C@H]2CCO2)cc2c1[C@@H](c1cc(F)ccc1Cl)NC2=O)c1cc(F)cc(C(F)(F)F)c1 (single isomer, unassigned) [Compound I-1520]
10000 to 100000 nM	O=C(CC1CCc2ccccc21)Nc1cc(Br)cc2c1C(c1cc(F)ccc1Cl)NC2=O (stereo not drawn) [Compound I-599]
100 to 500 nM	C[C@@H](C#N)Cn1cc(-c2cc(NC(=O)N3C[C@H](O)c4cc(F)ccc43)c3c(c2)C(=O)N[C@@H]3c2cc(F)ccc2Cl)cn1 (single isomer, unassigned) [Compound I-2501]
1000 to 10000 nM	O=C1N[C@H](c2cc(F)ccc2Cl)c2c(NC(=O)N3C[C@](O)(C(F)(F)F)c4ccccc43)cc(Cl)cc21 (single isomer, unassigned) [Compound I-2508]
10000 to 100000 nM	O=C1NC(c2cc(F)ccc2Cl)c2c(NC(=O)c3ccnc4ccc(Cl)cc34)cc(Br)cc21 (stereo not drawn) [Compound I-606]
100 to 500 nM	O=C(Nc1cc(-c2ccccc2C(=O)O)cc2c1C(c1cc(F)ccc1Cl)NC2=O)c1cc(F)cc(C(F)(F)F)c1 (stereo not drawn) [Compound I-1216]
1000 to 10000 nM	N#CC[C@@H](O)c1cc(NC(=O)c2cc(F)cc(C(F)(F)F)c2)c2c(c1)C(=O)N[C@@H]2c1cc(F)ccc1Cl (single isomer, unassigned) [Compound I-1391]
≤ 100 nM	Cc1ccccc1C1NC(=O)c2cc(CC(C)C)cc(NC(=O)c3cc(F)cc(C(F)(F)F)c3)c21 (stereo not drawn) [Compound I-268]
≤ 100 nM	O=Cc1cc(NC(=O)c2cc(F)cc(C(F)(F)F)c2)c2c(c1)C(=O)NC2c1cc(F)ccc1Cl (stereo not drawn) [Compound I-333, N-(3-(2-Chloro-5-fluorophenyl)-6-formyl-1-oxoisoindolin-4-yl)-3-fluoro-5-(trifluoromethyl)benzamide]

IC50	SMILES
100 to 500 nM	CC(=O)Cc1cc(NC(=O)c2cc(F)cc(C(F)(F)F)c2)c2c(c1)C(=O)N[C@H]2c1cc(F)ccc1Cl [Compound I-624]
≤ 100 nM	CCC(=O)Nc1cc(NC(=O)c2cc(F)cc(C(F)(F)F)c2)c2c(c1)C(=O)NC2c1cc(F)ccc1Cl (stereo not drawn) [Compound I-552]
10000 to 100000 nM	O=C(Nc1cccc2c1C(c1ccnc(Cl)c1)NC2=O)c1cc(F)cc(C(F)(F)F)c1 (stereo not drawn) [Compound I-630]
1000 to 10000 nM	O=C(Nc1cccc2c1C(C1=CCCCC1)NC2=O)c1cc(F)cc(C(F)(F)F)c1 (stereo not drawn) [Compound I-1629]
≤ 100 nM	O=C(Nc1cc(OCC(O)CCO)cc2c1C(c1cc(F)ccc1Cl)NC2=O)c1cc(F)cc(C(F)(F)F)c1 (stereo not drawn) [Compound I-1414]
10000 to 100000 nM	O=C1N[C@H](c2cc(F)ccc2Cl)c2c(NC(=O)N3C[C@@](O)(C(F)(F)F)c4cc(F)ccc43)cccc21 (single isomer, unassigned) [Compound I-2514]
10000 to 100000 nM	N#C[C@H]1CCN(C(=O)Nc2cc(-c3ccc4ncnn4c3)cc3c2C(c2cc(F)ccc2Cl)NC3=O)C1 (mixture of isomers) [Compound I-2415]
100 to 500 nM	C[C@]1(O)C[C@@H](Nc2cc(NC(=O)c3cc(F)cc(C(F)(F)F)c3)c3c(n2)C(=O)NC3c2cc(F)ccc2Cl)C1 (single isomer, unassigned) [Compound I-329]
≤ 100 nM	C[S@](=O)(Cc1cc(NC(=O)c2cc(F)cc(C(F)(F)F)c2)c2c(c1)C(=O)N[C@@H]2c1cc(F)ccc1Cl)=NC#N (single isomer, unassigned) [Compound I-1563]
1000 to 10000 nM	CN(C)S(=O)(=O)Cc1cc(NC(=O)c2cc(F)cc(C(F)(F)F)c2)c2c(c1)C(=O)N[C@@H]2c1cc(F)ccc1Cl [Compound I-1488]
100 to 500 nM	NCCOc1cc(NC(=O)c2cc(F)cc(C(F)(F)F)c2)c2c(c1)C(=O)NC2c1cc(F)ccc1Cl (stereo not drawn) [Compound I-1298]
500 to 1000 nM	O=C(Nc1cccc2c1C(c1cc(F)ccc1Cl)NC2=O)c1cc(Cl)cc(C(F)(F)F)c1 (stereo not drawn) [Compound I-725]
1000 to 10000 nM	Cc1ccccc1C1NC(=O)c2ccnc(NC(=O)c3nsc4ccccc34)c21 (stereo not drawn) [Compound I-176, N-[3-(2-Methylphenyl)-1-oxo-1H,2H,3H-pyrrolo[3,4-c]pyridin-4-yl]-1,2-benzothiazole-3-carboxamide]
100 to 500 nM	CNc1cc(NC(=O)N2C[C@](O)(C(F)(F)F)c3cc(F)ccc32)c2c(n1)C(=O)N[C@H]2c1cc(F)ccc1Cl (single isomer, unassigned) [Compound I-2647]
1000 to 10000 nM	O=C1N[C@H](c2cc(F)ccc2Cl)c2c(NC(=O)c3csc4ccccc34)cc(-c3ccc4ncnn4c3)cc21 [Compound I-1685]
≤ 100 nM	N#Cc1nn(C(F)F)cc1-c1cc(NC(=O)c2cc(F)cc(C(F)(F)F)c2)c2c(c1)C(=O)N[C@H]2c1cc(F)ccc1Cl [Compound I-1890]
10000 to 100000 nM	CCN(C(=O)Nc1cccc2c1C(c1cc(F)ccc1Cl)NC2=O)c1ccc(F)cc1 (stereo not drawn) [Compound I-2434]
≤ 100 nM	CC(C)(O)COc1cc(NC(=O)c2cc(F)cc(C(F)(F)F)c2)c2c(c1)C(=O)NC2c1cc(F)ccc1Cl (stereo not drawn) [Compound I-709]
500 to 1000 nM	N#CC1(n2cc(-c3cc(NC(=O)c4cc(F)cc(C(F)(F)F)c4)c4c(c3)C(=O)N[C@@H]4c3cc(F)ccc3Cl)cn2)CC1 [Compound I-1885]
1000 to 10000 nM	O=C(Nc1ccc(F)cc1F)Nc1ccnc2c1C(c1ccccc1Cl)NC2=O (stereo not drawn) [Compound I-245]

IC50	SMILES
≤ 100 nM	O=C(Nc1cc(NC(=O)c2cc(F)cc(C(F)(F)F)c2)c2c(c1)C(=O)N[C@H]2c1cc(F)ccc1Cl)c1cccnc1 [Compound I-1477]
≤ 100 nM	O=C(Nc1cc(C2COC2)cc2c1[C@H](c1cc(F)ccc1Cl)NC2=O)c1cc(F)cc(C(F)(F)F)c1 [Compound I-590]
500 to 1000 nM	Nc1nn(C(=O)Nc2cccc3c2C(c2cc(F)ccc2Cl)NC3=O)c2ccc(F)cc12 (stereo not drawn) [Compound I-2431]
≤ 100 nM	O=C(Nc1cc(-c2cnc(C3CC3)nc2)cc2c1C(c1cc(F)ccc1Cl)NC2=O)c1cc(F)cc(C(F)(F)F)c1 (stereo not drawn) [Compound I-822]
1000 to 10000 nM	C[C@@]1(O)CN(C(=O)Nc2cccc3c2[C@@H](c2cc(F)ccc2Cl)NC3=O)c2ccccc21 (single isomer, unassigned) [Compound I-2204]
≤ 100 nM	O=C(Nc1cc(NC2CCC2(F)F)nc2c1C(c1cc(F)ccc1Cl)NC2=O)c1cc(F)cc(C(F)(F)F)c1 (stereo not drawn) [Compound I-532]
1000 to 10000 nM	O=C(Nc1cc(N2CC(F)(F)C2)nc2c1[C@@H](c1cc(F)ccc1Cl)NC2=O)c1cc(F)cc(C(F)(F)F)c1 [Compound I-367]
≤ 100 nM	O=C(Nc1cc(-c2cn[nH]c2)nc2c1[C@H](c1cc(F)ccc1Cl)NC2=O)c1cc(F)cc(C(F)(F)F)c1 [Compound I-194]
1000 to 10000 nM	O=C1NC(c2cc(F)ccc2Cl)c2c(NC(=O)c3nsc(Cl)c3Cl)cc(Br)cc21 (stereo not drawn) [Compound I-1426]
10000 to 100000 nM	O=C1NC(c2cc(F)ccc2Cl)c2c(NC3CCCS(=O)(=O)C3)cc(-c3ccc4ncnn4c3)cc21 (stereo not drawn) [Compound I-2078]
10000 to 100000 nM	C[C@@H](O)c1cc(-c2ccc3ncnn3c2)cc2c1[C@H](c1cc(F)ccc1Cl)NC2=O (single isomer, unassigned) [Compound I-2231]
1000 to 10000 nM	O=C(Nc1cc(Br)cc2c1C(c1cc(F)ccc1Cl)NC2=O)c1cccc(C(F)(F)F)n1 (stereo not drawn) [Compound I-567]
10000 to 100000 nM	[2H][C@]1(c2cc(F)ccc2Cl)NC(=O)c2cccc(NC(=O)N3C[C@](O)(C(F)(F)F)c4cc(F)ccc43)c21 (single isomer, unassigned) [Compound I-2684]
≤ 100 nM	O=C(Nc1cc(Cn2ccnc2)cc2c1C(c1cc(F)ccc1Cl)NC2=O)c1cc(F)cc(C(F)(F)F)c1 (stereo not drawn) [Compound I-1430]
≤ 100 nM	Cc1ncc(-c2cc(NC(=O)c3cc(F)cc(C(F)(F)F)c3)c3c(c2)C(=O)N[C@H]3c2cc(F)ccc2Cl)cn1 [Compound I-784]
≤ 100 nM	Nc1nc2ccc(-c3cc(NC(=O)c4cc(F)cc(C(F)(F)F)c4)c4c(c3)C(=O)NC4c3cc(F)ccc3Cl)cn2n1 (stereo not drawn) [Compound I-1368]
≤ 100 nM	O=C(Nc1cc(NC(=O)C2(O)CC2)cc2c1C(c1cc(F)ccc1Cl)NC2=O)c1cc(F)cc(C(F)(F)F)c1 (stereo not drawn) [Compound I-592]
1000 to 10000 nM	O=C1N[C@@H](c2cc(F)ccc2Cl)c2c(NC(=O)N3C[C@@H](O)C[C@@H]3CC(F)(F)F)cccc21 (racemic) [Compound I-2164]
10000 to 100000 nM	CC(O)c1cc(-c2ccc3ncnn3c2)cc2c1C(c1cc(F)ccc1Cl)NC2=O (stereo not drawn) [Compound I-1907]
≤ 100 nM	N#CCC(O)c1cc(NC(=O)c2cc(F)cc(C(F)(F)F)c2)c2c(c1)C(=O)NC2c1cc(F)ccc1Cl (racemic) [Compound I-1243]
